One test deals with T1, K2P10.1(TREK-2) (Mus musculus, UniProt Q8BUW1).
T1 construct: expressed in transfected cells; host or cells: Xenopus laevis oocytes injected with mRNA made from pGEMHE/pMO
Briefly: TEVC of K2P10.1(TREK-2) in Xenopus oocytes. Type of test: cell-based. From the text: Constructs for murine K2P channels, including K2P2.1(TREK-1) (Gene ID 16526), K2P10.1(TREK-2) (Gene ID 72258), K2P4.1(TRAAK) (Gene ID 16528), K2P5.1(TASK-2) (Gene ID 16529), K2P3.1(TASK-1) (Gene ID 16527), K2P9.1(TASK-3) (Gene ID 223604), and K2P18.1(TRESK) (Gene ID 332396) in pGEMHE/pMO, were used for Xenopus oocyte experiments as previously described.[10],[26] Murine K2P2.1(TREK-1) (Gene ID 16526) was expressed in HEK-293 cells using a pIRES-EGFP construct as previously described.[26] Murine K2P13.1(THIK-1) (Gene ID 217826) and K2P1.1(TWIK-1) (Gene ID 16525) were cloned into pGEMHE/pMO for use in Xenopus oocytes. […]
Xenopus laevis oocytes were harvested in accordance with UCSF IACUC protocol AN129690 and digested in calcium-free ND-96 (96 mM NaCl, 2 mM KCl, 3.8 mM MgCl2) immediately following harvest, as previously described.[6],[10] […] Defolliculated stage V–VI oocytes were injected with 0.2–6.0 ng of mRNA in 50 nL, and currents were recorded 24–48 h after injection. mRNA was synthesized from plasmid DNA using mMessage mMachine Kit (T7 promoter, Ambion, Life Technologies) and purified using RNEasy Kit (Qiagen). […] Once stabilized basal currents were recorded, compounds were perfused at various concentrations in standard ND96 and currents were allowed to increase to stabilization before recording final current. […]

The target in the next test is T2, K2P4.1(TRAAK) L147F (Mus musculus, UniProt O88454, L147F).
T2 construct: expressed in transfected cells; host or cells: Xenopus laevis oocytes, mRNA injected
T2 sequence (O88454 whole entry L147F): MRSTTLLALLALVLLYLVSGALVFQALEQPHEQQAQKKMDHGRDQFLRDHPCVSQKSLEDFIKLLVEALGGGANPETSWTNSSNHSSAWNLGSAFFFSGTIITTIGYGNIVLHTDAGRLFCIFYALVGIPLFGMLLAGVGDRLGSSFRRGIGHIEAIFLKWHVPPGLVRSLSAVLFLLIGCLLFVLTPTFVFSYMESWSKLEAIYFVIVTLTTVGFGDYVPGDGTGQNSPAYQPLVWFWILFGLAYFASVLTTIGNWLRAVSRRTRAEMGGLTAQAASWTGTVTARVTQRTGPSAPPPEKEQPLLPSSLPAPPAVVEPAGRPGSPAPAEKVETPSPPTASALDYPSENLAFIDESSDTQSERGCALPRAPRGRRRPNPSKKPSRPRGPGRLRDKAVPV
Briefly: TEVC of K2P4.1(TRAAK) mutant L147F. The class given is cell-based. Conditions: Xenopus oocytes. The source says: To identify K2P2.1(TREK-1) M2 residues that might participate in the BL-1249 response, we mapped the residues that differ between K2P2.1(TREK-1) and K2P4.1(TRAAK) in the context of the K2P2.1(TREK-1) structure[6] (Figure 5B,C). Two K2P2.1(TREK-1) M2 residues stood out as candidates that could explain the reduction in BL-1249 response when the entire M2 helix was replaced with M2 from K2P4.1(TRAAK). One is at the M2/M4 interface and occurs between Phe172 and Arg297 via a π–cation interaction that would be lost when Phe172 is replaced with the equivalent K2P4.1(TRAAK) residue Met134 (Figure 5C, right inset). […] To assess the importance of these interactions in the context of BL-1249 response, we made the K2P2.1(TREK-1) mutants F172M and F185L and measured their responses to BL-1249 (Figure 5D). […]
Xenopus laevis oocytes were harvested in accordance with UCSF IACUC protocol AN129690 and digested in calcium-free ND-96 (96 mM NaCl, 2 mM KCl, 3.8 mM MgCl2) immediately following harvest, as previously described.[6],[10] […] Defolliculated stage V–VI oocytes were injected with 0.2–6.0 ng of mRNA in 50 nL, and currents were recorded 24–48 h after injection. mRNA was synthesized from plasmid DNA using mMessage mMachine Kit (T7 promoter, Ambion, Life Technologies) and purified using RNEasy Kit (Qiagen). […]

The record followed here is paper PMC6302903, “Protein and Chemical Determinants of BL-1249 Action and Selectivity for K2P Channels” (ACS Chemical Neuroscience, 2018).

T1 sequence (Q8BUW1 whole entry): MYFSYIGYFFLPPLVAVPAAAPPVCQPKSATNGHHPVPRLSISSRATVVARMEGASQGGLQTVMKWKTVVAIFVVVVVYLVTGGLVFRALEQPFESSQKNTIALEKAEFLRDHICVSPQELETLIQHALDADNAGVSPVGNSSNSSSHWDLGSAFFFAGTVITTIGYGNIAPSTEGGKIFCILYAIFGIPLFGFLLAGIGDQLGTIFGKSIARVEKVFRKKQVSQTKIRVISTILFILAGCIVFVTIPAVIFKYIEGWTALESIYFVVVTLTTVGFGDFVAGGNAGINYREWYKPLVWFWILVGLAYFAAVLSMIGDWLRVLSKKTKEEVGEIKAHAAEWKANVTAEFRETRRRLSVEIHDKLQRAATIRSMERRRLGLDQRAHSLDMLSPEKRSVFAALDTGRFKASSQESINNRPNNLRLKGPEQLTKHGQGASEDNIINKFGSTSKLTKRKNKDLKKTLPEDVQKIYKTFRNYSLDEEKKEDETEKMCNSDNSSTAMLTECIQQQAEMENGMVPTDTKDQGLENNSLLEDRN

A word on the EC50: it is the concentration needed to bring the measured effect to its halfway point. A high value points to weaker potency. As for `c1ccc(-c2nnn[nH]2)c(Nc2cccc3c2CCCC3)c1` [BL-1249, (5,6,7,8-tetrahydro-naphthalen-1-yl)-[2-(1H-tetrazol-5-yl)-phenyl]-amine], the figures for the EC50 at K2P10.1(TREK-2) (I/I0 at 0 mV) and on K2P4.1(TRAAK) L147F were 8 ± 0.8 µM and 27 ± 4 µM, respectively. The “K2P10.1(TREK-2) current response” value on K2P10.1(TREK-2) (extracellular application of 10 μM) was “clear activation responses”.
